Test results taken from ChEMBL document CHEMBL1944592 (Bioorg Med Chem Lett, 2012).

Tests used:
Format in all cases: functional, cell-based
[1] = target: T1, Peroxisome proliferator-activated receptor gamma (Homo sapiens, UniProt P37231); assay: Partial agonist activity at human PPARgamma expressed in MG-63 cells by reporter gene-based transactivation assay
T1 sequence (P37231 whole entry): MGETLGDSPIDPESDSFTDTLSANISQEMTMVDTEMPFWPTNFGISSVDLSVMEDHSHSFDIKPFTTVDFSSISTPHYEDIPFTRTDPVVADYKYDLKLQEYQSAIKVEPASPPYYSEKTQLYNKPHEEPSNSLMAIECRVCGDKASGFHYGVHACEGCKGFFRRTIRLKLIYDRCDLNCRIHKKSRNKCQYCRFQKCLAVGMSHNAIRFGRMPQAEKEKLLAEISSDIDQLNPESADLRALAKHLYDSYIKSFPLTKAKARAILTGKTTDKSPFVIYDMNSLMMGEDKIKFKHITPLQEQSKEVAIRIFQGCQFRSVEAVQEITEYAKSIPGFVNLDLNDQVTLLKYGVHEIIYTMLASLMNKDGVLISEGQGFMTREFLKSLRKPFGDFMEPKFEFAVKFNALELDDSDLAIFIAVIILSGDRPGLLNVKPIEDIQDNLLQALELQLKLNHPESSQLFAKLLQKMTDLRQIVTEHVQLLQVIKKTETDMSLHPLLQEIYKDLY

[2] = target: T2, Peroxisome proliferator-activated receptor gamma (Homo sapiens) (UniProt P37231); assay: Partial agonist activity at human PPARgamma expressed in MG-63 cells at 2 times EC50 concentration by reporter gene-based transactivation assay relative to PPARgamma full agonist
T2 sequence (whole entry): T1 sequence (P37231 whole entry)

[3] = target: T2, Peroxisome proliferator-activated receptor gamma (Homo sapiens); assay: Agonist activity at human PPARgamma expressed in MG-63 cells at 2 times EC50 concentration by reporter gene-based transactivation assay relative to PPARgamma full agonist
[4] = target: T1, Peroxisome proliferator-activated receptor gamma; assay: Agonist activity at human PPARgamma expressed in MG-63 cells by reporter gene-based transactivation assay

COC(=O)c1cc(CNC(=O)c2c(OC)cc(O)c3c2OC2=CC(O)=C(C(C)=O)C(=O)[C@]23C)c2ccccc2c1
EC50 [1]: 0.88 µM
Emax [2]: 55%

COC(=O)CCCc1cc(CNC(=O)c2c(OC)cc(O)c3c2OC2=CC(O)=C(C(C)=O)C(=O)[C@]23C)c2ccccc2c1
Emax [3]: 99%
EC50 [4]: 0.042 µM

COc1cc(O)c2c(c1C(=O)NCc1cc(C)cc3ccccc13)OC1=CC(O)=C(C(C)=O)C(=O)[C@]12C
EC50 [1]: 0.21 µM
Emax [2]: 51%

CCOc1cc(CNC(=O)c2c(OC)cc(O)c3c2OC2=CC(O)=C(C(C)=O)C(=O)[C@]23C)c2ccccc2c1
EC50 [1]: 0.24 µM
Emax [2]: 22%

COC(=O)CCc1cc(CNC(=O)c2c(OC)cc(O)c3c2OC2=CC(O)=C(C(C)=O)C(=O)[C@]23C)c2ccccc2c1
EC50 [1]: 0.13 µM
Emax [2]: 79%

COc1cc(O)c2c(c1C(=O)NCc1cc(C(=O)O)cc3ccccc13)OC1=CC(O)=C(C(C)=O)C(=O)[C@]12C
EC50 [1]: > 1 µM

COc1cc(O)c2c(c1C(=O)NCc1cc(OC(C)=O)cc3ccccc13)OC1=CC(O)=C(C(C)=O)C(=O)[C@]12C
EC50 [1]: 0.68 µM
Emax [2]: 50%

COc1cc(O)c2c(c1C(=O)NCc1cc(CCC(=O)O)cc3ccccc13)OC1=CC(O)=C(C(C)=O)C(=O)[C@]12C
Emax [3]: 109%
EC50 [4]: 0.32 µM

COc1cc(O)c2c(c1C(=O)NCc1cc(CCCC(=O)O)cc3ccccc13)OC1=CC(O)=C(C(C)=O)C(=O)[C@]12C
Emax [3]: 105%
EC50 [4]: 0.067 µM

COc1cc(CNC(=O)c2c(OC)cc(O)c3c2OC2=CC(O)=C(C(C)=O)C(=O)[C@]23C)c2ccccc2c1
EC50 [1]: 0.094 µM
Emax [2]: 32%

COc1cc(O)c2c(c1C(=O)NCc1cc(O)cc3ccccc13)OC1=CC(O)=C(C(C)=O)C(=O)[C@]12C
EC50 [1]: 0.13 µM
Emax [2]: 29%

COCc1cc(CNC(=O)c2c(OC)cc(O)c3c2OC2=CC(O)=C(C(C)=O)C(=O)[C@]23C)c2ccccc2c1
EC50 [1]: 0.2 µM
Emax [2]: 44%
